Activity calls are given as the source filed them. The rule behind the calls is not given here.

Usually ED50 stands for the dose that gives a 50% effect, or the effect in half of the subjects.

In assay [1] the test system is Canis familiaris. Description: Induction of overt behavior in dog at 0.10 mg/kg, iv. Details: dose 0.1 mg/kg. It counts as functional, organism-based. The conditions noted are these: Canis lupus familiaris.
Assay [2] concerns Canis familiaris. Description: Induction of overt behavior in dog at 0.20 mg/kg, iv. The format is functional, organism-based. Details: dose 0.2 mg/kg. The note with it: Canis lupus familiaris.
The test system of assay [3] is Canis familiaris. Description: Induction of overt behavior in dog at 0.40 mg/kg, iv. It counts as functional, organism-based. Further details: dose 0.4 mg/kg. The note with it: Canis lupus familiaris.
Assay [4] has as its system Mus musculus. Description: Analgesic activity in sc dosed mouse by hot-plate method. The format is functional.
Assay [5] deals with Mus musculus. Description: Analgesic activity in mouse at 20 mg/kg, sc by hot-plate method. It counts as functional, organism-based. Details: dose 20 mg/kg.
The subject of assay [6] is Canis familiaris. Put plainly: Induction of overt behavior in dog at 0.80 mg/kg, iv. The format is functional, organism-based. Further details: dose 0.8 mg/kg. The note with it: Canis lupus familiaris.
In assay [7] the test system is Canis familiaris. Put plainly: Induction of overt behavior in dog at 1 mg/kg, iv. It counts as functional, organism-based. Further details: dose 1 mg/kg. The note with it: Canis lupus familiaris.
Assay [8] relates to Canis familiaris. Description: Induction of overt behavior in dog at 2 mg/kg, iv. The note with it: Canis lupus familiaris. It counts as functional, organism-based. Details: dose 2 mg/kg.
Assay [9] has as its system Canis familiaris. Put plainly: Induction of overt behavior in dog at 3 mg/kg, iv. The format is functional, organism-based. Details: dose 3 mg/kg. The note with it: Canis lupus familiaris.
Assay [10] deals with Mus musculus. Description: Analgesic activity in mouse at 50 mg/kg, sc by hot-plate method. It counts as functional, organism-based. Further details: dose 50 mg/kg. A general note: Hot-plate and tail-flick tests time the reaction to a heat stimulus.
The test system of assay [11] is Canis familiaris. Description: Induction of overt behavior in dog at 0.50 mg/kg, iv. It counts as functional, organism-based. Details: dose 0.5 mg/kg. The conditions noted are these: Canis lupus familiaris.
Assay [12] deals with Canis familiaris. Description: Induction of overt behavior in dog at 0.01 mg/kg, iv. The format is functional, organism-based. The note with it: Canis lupus familiaris. Further details: dose 0.01 mg/kg.
Assay [13] deals with Canis familiaris. Put plainly: Induction of overt behavior in dog at 0.05 mg/kg, iv. The format is functional, organism-based. Further details: dose 0.05 mg/kg. The conditions noted are these: Canis lupus familiaris.
Assay [14] deals with Canis familiaris. Description: Induction of overt behavior in dog at 4 mg/kg, iv. Further details: dose 4 mg/kg. The note with it: Canis lupus familiaris. The format is functional, organism-based.

In the case of `CCCCCc1cc(O)c2c(c1)OC(C)(C)[C@@H]1CC=C(C)C[C@@H]21` [DELTA-8-TETRAHYDROCANNABINOL], the result in assay [1] and in [2] was inactive. Further, in [3], the outcome was Active. The compound also showed an ED50 in assay [4] of 8.8 mg/kg.
As for `CCCCCc1cc(O)c2c(c1)OC(C)(C)[C@@H]1CC/C(=N/O)C[C@@H]21`, the result in assay [5] was inactive.
On to `CCCCCc1cc(O)c2c(c1)OC(C)(C)[C@@H]1CC=C(CC)CC21` (mixture of isomers), for which the result in [2], in assay [3] and in assay [10] was inactive. In addition, the result in assay [6], in [7], in assay [8] and in assay [9] was Active.
`COc1ccc2c3c1O[C@H]1[C@@H](O)C=C[C@H]4[C@@H](C2)N(C)CC[C@@]341.Cl` showed an ED50 in [4] of 7.5 mg/kg.
For `CCCCCc1cc(O)c2c(c1)OC(C)(C)[C@@H]1CC=C(CN)C[C@@H]21`, the outcome in [11], in [7] and in [5] was inactive. For the same compound, the result in assay [8] was Active.
With `CCCCCc1cc(O)c2c(c1)OC(C)(C)[C@@H]1CC=C(CNC(C)=O)C[C@@H]21`, the outcome in assay [5] was inactive.
In assay [4], `CN1CC[C@]23c4c5ccc(O)c4O[C@H]2[C@@H](O)C=C[C@H]3[C@H]1C5.Cl` [MORPHINE HYDROCHLORIDE] showed an ED50 of 1.2 mg/kg.
With `CCCCCc1cc(O)c2c(c1)OC(C)(C)[C@@H]1CCC(CO)=C[C@@H]21`, the result in assay [12], in [13] and in assay [1] was Active. In assay [4], this compound yielded an ED50 of 1.9 mg/kg.
Turning to `CCCCCc1cc(O)c2c(c1)OC(C)(C)[C@@H]1CC=C(COC)C[C@@H]21`, the result in assay [8] and in assay [14] was Active. Further, in assay [4], the ED50 was 8.2 mg/kg.

The values are drawn from ChEMBL document CHEMBL3227930, “Some 11-substituted tetrahydrocannabinols. Synthesis and comparison with the potent cannabinoid metabolites 11-hydroxytetrahydrocannabinols” (1979).
